PubChem BioAssay AID1963972 (Molecular Pharmacology Branch, DTP, NCI, 2024)
pIC50: −log10 of the molar value.

System: 945468-187-T-J2-PDC spheroids viability
Assay: Anticancer human tumor 945468-187-T-J2-PDC patient-derived rectal carcinoma cell line growth inhibition [PI3K]
Conditions: spheroids with HUVEC and MSC; for pIC50: curve of first compound; for viability, T/C: stronger effect = lower value; active = viability on the fitted dose curve at most 10% of control; inactive = the rest
In short: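 Agents were dosed from a top concentration near clinical Cmax (otherwise 10 microM) in half-log decrements, alone or combined with PI3K inhibitors. The spheroids contain tumor cells plus endothelial (HUVEC) and MSC stroma; viability is measured.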

[1] = second compound 0.00316 µM, first compound 0.0316 µM
[2] = second compound 0.00316 µM, first compound 0.1 µM
[3] = second compound 0.01 µM, first compound 0.0316 µM
[4] = second compound 0.01 µM, first compound 0.1 µM
[5] = second compound 0.0316 µM, first compound 0.0316 µM
[6] = second compound 0.0316 µM, first compound 0.1 µM
[7] = second compound 0.1 µM, first compound 0.0316 µM
[8] = second compound 0.1 µM, first compound 0.1 µM
[9] = second compound 0.316 µM, first compound 0.0316 µM
[10] = second compound 0.316 µM, first compound 0.1 µM
[11] = second compound 1 µM, first compound 0.0316 µM
[12] = second compound 1 µM, first compound 0.1 µM
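Also: spheroids exposed to compounds for seven days before reading.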

CC(C)n1nc(-c2ccc3oc(N)nc3c2)c2c(N)ncnc21 + COc1c(OCCCN2CCOCC2)ccc2c3n(c(=NC(=O)c4cnc(N)nc4)nc12)CCN3
7.69: pIC50 (second compound 0.1 µM)
< 7.00: pIC50 (second compound 0.00316 µM) | pIC50 (second compound 0.01 µM)
7.22: pIC50 (second compound 0.0316 µM)
inactive: viability, T/C (second compound 0.00316 µM, first compound 0.000316 µM) 82.4% | viability, T/C (second compound 0.00316 µM, first compound 0.001 µM) 83.8% | viability, T/C (second compound 0.00316 µM, first compound 0.00316 µM) 81.7% | viability, T/C (second compound 0.00316 µM, first compound 0.01 µM) 84.3% | viability, T/C [1] 73.6% | viability, T/C [2] 61.1% | viability, T/C (second compound 0.01 µM, first compound 0.000316 µM) 120% | viability, T/C (second compound 0.01 µM, first compound 0.001 µM) 109% | viability, T/C (second compound 0.01 µM, first compound 0.00316 µM) 80.7% | viability, T/C (second compound 0.01 µM, first compound 0.01 µM) 82.7% | viability, T/C [3] 66.6% | viability, T/C [4] 66.1% | viability, T/C (second compound 0.0316 µM, first compound 0.000316 µM) 77.1% | viability, T/C (second compound 0.0316 µM, first compound 0.001 µM) 85.8% | viability, T/C (second compound 0.0316 µM, first compound 0.00316 µM) 116% | viability, T/C (second compound 0.0316 µM, first compound 0.01 µM) 86% | viability, T/C [5] 79.1% | viability, T/C [6] 27.4% | viability, T/C (second compound 0.1 µM, first compound 0.000316 µM) 76.2% | viability, T/C (second compound 0.1 µM, first compound 0.001 µM) 76.2% | viability, T/C (second compound 0.1 µM, first compound 0.00316 µM) 61.5% | viability, T/C (second compound 0.1 µM, first compound 0.01 µM) 75.6% | viability, T/C [7] 36.2% | viability, T/C [8] 16.7% | viability, T/C (second compound 0.316 µM, first compound 0.000316 µM) 36.5% | viability, T/C (second compound 0.316 µM, first compound 0.001 µM) 31.8% | viability, T/C (second compound 0.316 µM, first compound 0.00316 µM) 26.5% | viability, T/C (second compound 0.316 µM, first compound 0.01 µM) 25.4% | viability, T/C [9] 17.6% | viability, T/C [10] 10.9% | viability, T/C (second compound 1 µM, first compound 0.000316 µM) 20.2% | viability, T/C (second compound 1 µM, first compound 0.001 µM) 22.1% | viability, T/C (second compound 1 µM, first compound 0.00316 µM) 17.7% | viability, T/C (second compound 1 µM, first compound 0.01 µM) 13.8% | viability, T/C [11] 12.1% | viability, T/C [12] 11.3%
> 9.50: pIC50 (second compound 0.316 µM) | pIC50 (second compound 1 µM)

CC1(C)CCC(CN2CCN(c3ccc(C(=O)NS(=O)(=O)c4ccc(NCC5CCOCC5)c([N+](=O)[O-])c4)c(Oc4cnc5[nH]ccc5c4)c3)CC2)=C(c2ccc(Cl)cc2)C1 + COc1c(OCCCN2CCOCC2)ccc2c3n(c(=NC(=O)c4cnc(N)nc4)nc12)CCN3
inactive: viability, T/C [1] 87.8% | viability, T/C [2] 87.4% | viability, T/C (second compound 0.00316 µM, first compound 0.316 µM) 94.8% | viability, T/C (second compound 0.00316 µM, first compound 1 µM) 110% | viability, T/C (second compound 0.00316 µM, first compound 3.16 µM) 116% | viability, T/C (second compound 0.00316 µM, first compound 10 µM) 74.1% | viability, T/C [3] 96.8% | viability, T/C [4] 100% | viability, T/C (second compound 0.01 µM, first compound 0.316 µM) 90.5% | viability, T/C (second compound 0.01 µM, first compound 1 µM) 89.6% | viability, T/C (second compound 0.01 µM, first compound 3.16 µM) 95.7% | viability, T/C (second compound 0.01 µM, first compound 10 µM) 90.3% | viability, T/C [5] 99.9% | viability, T/C [6] 103% | viability, T/C (second compound 0.0316 µM, first compound 0.316 µM) 82.9% | viability, T/C (second compound 0.0316 µM, first compound 1 µM) 115% | viability, T/C (second compound 0.0316 µM, first compound 3.16 µM) 97% | viability, T/C (second compound 0.0316 µM, first compound 10 µM) 105% | viability, T/C [7] 87.7% | viability, T/C [8] 75% | viability, T/C (second compound 0.1 µM, first compound 0.316 µM) 100% | viability, T/C (second compound 0.1 µM, first compound 1 µM) 90.5% | viability, T/C (second compound 0.1 µM, first compound 3.16 µM) 84.5% | viability, T/C (second compound 0.1 µM, first compound 10 µM) 81.6% | viability, T/C [9] 31.3% | viability, T/C [10] 36.7% | viability, T/C (second compound 0.316 µM, first compound 0.316 µM) 47.7% | viability, T/C (second compound 0.316 µM, first compound 1 µM) 38.6% | viability, T/C (second compound 0.316 µM, first compound 3.16 µM) 33% | viability, T/C (second compound 0.316 µM, first compound 10 µM) 36.7% | viability, T/C [11] 19.9% | viability, T/C [12] 21.4% | viability, T/C (second compound 1 µM, first compound 0.316 µM) 19.4% | viability, T/C (second compound 1 µM, first compound 1 µM) 19.9% | viability, T/C (second compound 1 µM, first compound 3.16 µM) 22.4% | viability, T/C (second compound 1 µM, first compound 10 µM) 22.6%
< 5.00: pIC50 (second compound 0.00316 µM) | pIC50 (second compound 0.01 µM) | pIC50 (second compound 0.0316 µM) | pIC50 (second compound 0.1 µM)
> 7.50: pIC50 (second compound 0.316 µM) | pIC50 (second compound 1 µM)
